Results taken from patent publication US20150297619A1, “METHODS AND COMPOSITIONS FOR PRESERVING THE MUCOSAL BARRIER” (priority 2014, published 2015).

Experiments:
experimental shock = conditions: cited from earlier work
~20-kDa serine proteases = test: Gelatin gel zymography of plasma, lung and intestine samples renatured with serine protease inhibitors; format: biochemical, rat; conditions: 75 μmol/L ANGD or 100 lmol/L TLCK in renaturing and developing buffers, lung, intestine samples
Method: Protease Activity—Gelatin gel zymography was completed as previously described. When present, the luminal contents from the jejunal tissue were discarded by gentle compression of the intestine before homogenization to prevent excess digestion of the gelatin substrate in the gels by luminal proteases. Tissues from shocked animals (flushed and nonflushed) as well as controls were rinsed and blotted dry before weighing. Protein concentration was determined using the BCA kit before mixing each sample in a 1:1 ratio with loading dye (containing sodiumdodecyl sulfate (SDS), but no reducing agent). Two microgram protein/lane of intestine or 20 μg protein/lane of lung homogenates were loaded. Plasma (0.5 μL) was mixed with 2 μL loading dye and loaded into each lane.
Samples were separated by gel electrophoresis in 11% sodiumdodecyl sulfate polyacrylamide gel electrophoresis (SDS-PAGE) gelatin impregnated gels. Upon separation, gel proteins were renatured in 2.5% Triton-X 100 in water (49, 15 min) before incubation at 37° C. overnight in developing buffer (0.05 mol/L Tris base, 0.2 mol/L NaCl, 4 μmol/L ZnCl2, 5 mmol/L CaCl2.2H2O). Gels were then fixed and stained (50% methanol, 10% acetic acid, 40% water, and 0.25% Coomassie blue solution) for 3 h, destained in water to achieve appropriate contrast before digital analysis (ImageJ).
To confirm that the ˜20-kDa bands were serine proteases, gels were renatured and developed in the aforementioned buffers with the addition of either 75 μmol/L serine protease inhibitor ANGD (nafamostat mesilate) or 100 lmol/L trypsin inhibitor tosyl-lysine chloromethyl ketone (TLCK) and compared to duplicate gels that were subject to the standard renaturation procedure.

[1] = system: mucin 13, occludin, and E-cadherin; test: Immunoblots of epithelial barrier proteins in post-ischemic intestinal homogenates (segment 7); design: species or system rat; conditions: ileum segment 7, two hour ex vivo ischemia
Method: Immunoblotting—To determine whether selected epithelial barrier proteins were degraded during ischemia, pre- and post-ischemic intestinal tissue homogenates (segment 7) were analyzed for relative levels of mucin 13, occludin, and E-cadherin.
Tissues were homogenized for immunoblot analysis in buffer (CelLytic, Sigma-Aldrich) with protease inhibitor cocktail (HALT, Thermo Scientific, 1:100 dilution) and centrifuged (1×10^4 g, 20 min). Protein concentration in supernatants was determined (BCA, ThermoScientific). To separate proteins by gel electrophoresis, 30 μg of protein/well were loaded in 8 or 12% resolving gels with 4% stacking gels and transferred to nitrocellulose membranes (Bio-Rad, Hercules, Calif.). Membranes were blocked for one hour with either 5% bovine serum albumin (BSA) or 5% nonfat milk in tris-buffered saline with 0.5% Tween-20 (TBS-T). Primary antibodies diluted in 1% BSA or 1% nonfat milk against mucin 13 (1:1000, extracellular domain, sc-66973 Santa Cruz Biotechnology, Santa Cruz, Calif.), E-cadherin (1:1000, intracellular domain, 33-4000, Invitrogen), occludin (1:1000, intracellular domain, 33-1500, Invitrogen), pancreatic trypsin (1:1000, sc-137077 Santa Cruz Biotechnology), or β-actin (1:1000, sc-130301, Santa Cruz Biotechnology) were incubated overnight at 4° C. After incubation, membranes were washed with TBS-T (3×, 10 min) before addition of goat anti-rabbit or rabbit anti-mouse secondary antibodies (Santa Cruz Biotechnology) diluted 1:1000 in TBS-T. Following secondary antibody incubation (60 min), the membranes were washed with TBS-T (3×) and developed.

[2] = system: MMP-9 dimers, pro-MMP-2, MMP-2, MMP-1 or MMP-3; test: Gelatin gel zymography of pre-ischemic intestinal homogenates renatured with inhibitor: MMP bands; format: biochemical, rat; conditions: inhibitor in renaturing and developing buffer: tranexamic acid 20 mM, doxycycline 1 mg/ml, GM-6001 1 ug/ml
Method: Gelatin Gel Zymography—Segments 2 and 7 from pre-ischemic intestines were homogenized (0.1 g tissue/ml homogenization buffer; PBS pH 7.4 with 0.5% hexadecyltrimethyl bromide) and centrifuged at 1.4×10^4 g for 20 minutes. Supernatants were stored at −80° C. until samples were processed. To assess the proteolytic activities of individual proteases in intestinal tissue samples, sample volumes of 1 μl (with 2 μg of protein) were separated by gel electrophoresis in SDS-PAGE gels containing 80 μg/ml gelatin. […] The molecular weights of the proteases were estimated by use of a standard protein ladder (Invitrogen). Gels were digitized and bands were analyzed by densitometry in ImageJ (rsbweb.nih.gov/ij/). […] These gels were compared to a concurrently run gel processed normally.

intestinal villi = test: Morphological analysis of intestinal villi after ex vivo ischemia (Van Gieson/hematoxylin); design: species or system rat; conditions: jejunum and ileum after 2 hrs ex vivo ischemia
Method: After the two-hour ischemic incubation, intestinal pieces from segments 2 (jejunum) and 7 (ileum) were embedded in O.C.T. (Tissue Tek, Torrance, Calif.) and snap frozen in t-methyl butane in liquid nitrogen. Intestine samples from segments 2 and 7 (for protease analysis) and segment 7 (for immunoblots) were snap frozen and stored for subsequent homogenization. Morphological Analysis and TUNEL Labeling—Intestinal segments frozen in O.C.T. were cut into 5 μm sections. Sections were fixed using ice-cold methanol (8 min at −20° C.) and immediately washed four times in distilled water. Nuclei were stained by incubating sections in freshly mixed Weigert's Iron Hematoxylin A and B (Electron Microscopy Science, Hatfield, Pa.) (10 min) followed by rinsing thoroughly with water. Collagen fibers were labeled by incubating (2 min) in Van Gieson's Solution (Electron Microscopy Science). Prior to mounting, all slides were dehydrated (70, 95, 100% ethanol) and cleaned with xylene. After air-drying overnight, sections were mounted using Hard Set Mounting Media (Vector Laboratories, Burlingame, Calif.). Digital images were captured with a 20× objective (numerical aperture 0.5) and digitally montaged together after background subtraction. The separation of the mucosal epithelial layer was quantified for groups that had intact villi following the two hour ischemic period. Images were blinded and the distance between the mucosal epithelial layer and the lamina propria was measured over five lengths across a minimum of 6 villi.

20 kDa serine proteases = test: Gelatin gel zymography of pre-ischemic intestinal homogenates renatured with inhibitor: serine protease bands; format: biochemical, rat; conditions: inhibitor in renaturing and developing buffer: tranexamic acid 20 mM, doxycycline 1 mg/ml, GM-6001 1 ug/ml
Method: Gelatin Gel Zymography—Segments 2 and 7 from pre-ischemic intestines were homogenized (0.1 g tissue/ml homogenization buffer; PBS pH 7.4 with 0.5% hexadecyltrimethyl bromide) and centrifuged at 1.4×10^4 g for 20 minutes. Supernatants were stored at −80° C. until samples were processed.
To assess the proteolytic activities of individual proteases in intestinal tissue samples, sample volumes of 1 μl (with 2 μg of protein) were separated by gel electrophoresis in SDS-PAGE gels containing 80 μg/ml gelatin. […] The molecular weights of the proteases were estimated by use of a standard protein ladder (Invitrogen). Gels were digitized and bands were analyzed by densitometry in ImageJ (rsbweb.nih.gov/ij/).
These gels were compared to a concurrently run gel processed normally.

[3] = system: ischemic small intestine segments (jejunum to ileum); test: Ex vivo intestinal ischemia: transmural fluorescein transport across wall of flushed intestinal segments; design: species or system rat
From the text: Intestinal Ischemia—Since intestinal properties are non-homogenous, the transmural permeability was investigated over the entire length of the jejunum and ileum. Due to physical constraints of the small intestine anatomy, it is not feasible to simultaneously analyze permeability from multiple segments in vivo. Therefore, an ex vivo approach similar to previously published studies was designed to measure permeability along the length of the small intestine.
A midline incision was made to expose the intestine in anesthetized rats. The proximal end of the jejunum (approximately 5 cm distal from the ligament of Treitz) was cannulated with a female luer to barb tube connector (⅛″ inner diameter). The intestine was removed and placed in saline immediately before euthanasia. In order to focus the analysis on permeability of the intestinal wall during ischemia in the absence of luminal contents (including the digestive proteases or cytotoxic factors from food), the lumen of the intestine was flushed with 40 ml saline using pulsatile pressure. Visual examination confirmed all solid contents were removed. Next, the intestine was cut into eight equal length segments (˜8 cm) sequentially ordered from the proximal jejunum (position 1) to the distal ileum (position 8). Both ends of each segment were cannulated with Female Luer to Barb tube connectors (thus allowing entry and exit points from the intestinal lumen to be sealed completely), secured with 4-0 suture, and the exterior portion of one adaptor on each segment sealed with clay.
To determine the transmural permeability of the intestine, all 8 segments from each animal were filled with a low molecular weight tracer as a sensitive measure of early barrier breakdown prior to the initiation of ischemia, fluorescein (332 Da M.W., 20 μg/ml from 5 mg/ml stock in ethanol; 0.308 osm/L; Sigma-Aldrich, St. Louis, Mo.) mixed with saline, glucose (100 mg/ml in saline; 0.550 moles/L; 0.863 osm/L, Sigma-Aldrich), the non-metabolizing glucose analog mannitol (100 mg/ml in saline; 0.550 moles/L; 0.863 osm/L), the serine protease inhibitor tranexamic acid (31 mg/ml in saline; 0.200 moles/L; 0.508 osm/L, Sigma-Aldrich), the MMP inhibitor doxycycline hyclate (1 mg/ml in saline; 1.955×10^−3 moles/L; 0.310 osm/L, Sigma-Aldrich), or the MMP inhibitor GM 6001 [38] (1 μg/ml in saline from 1 mg/ml stock in DMSO; 2.57×10^−6 moles/L; 0.308 osm/L, Millipore, Billerica, Md.). […]
Sealed segments were rinsed in saline, individually placed in 15 ml conical tubes containing 6 ml saline, and incubated at 37° C. for 2 hours to simulate ischemic conditions. […] Plates were read in a plate reader (FilterMax F-5 Multi-mode, Molecular Devices, Sunnyvale, Calif.) for concentration of fluorescein (excitation 494/emission 521) to measure diffusion across the wall of the intestine.
Permeability Analysis—To determine the fluorescein transport across the ischemic intestinal wall, the fluorescence at time 0 was subtracted from fluorescence values at later time points to correct for background, and fluorescence values were corrected to account for the volume reduction due to sampling during the experiment. The RFU measurements were converted to equivalent moles by using the linear relationship between concentration and fluorescein fluorescence (not shown, R^2=0.999). The transport of fluorescein across the wall (measured in moles, per time) was computed as the change in fluorescence over a 30 min interval divided by 30 min.

MMP-1/9 = test: Plasma MMP-1/9 activity by plate zymography after hemorrhagic shock; format: in vivo, rat; conditions: compared to the HS+SAL animals
Method: Enzyme and Protease Activity Measurements—All microplate assays were performed in duplicate in 96 well black-sided flat bottom polystyrene plates (Corning, New York, N.Y.) and measured in a microplate reader (FilterMax F-5 Multi-mode, Molecular Devices, Sunnyvale, Calif.). Plasma MMP-1/9 activity was also detected by plate zymography using a protease specific substrate (American Peptide Company, Sunnyvale, Calif.).

Molecule: CS(=O)(=O)O.CS(=O)(=O)O.N=C(N)Nc1ccc(C(=O)Oc2ccc3cc(C(=N)N)ccc3c2)cc1 [ANGD, 6-amidino-2-naphthyl p-guanidinobenzoate dimethanesulfonate]
- microhemorrhages in the intestine (experimental shock; enteral treatment in the small intestine): reduced microhemorrhages in the intestine
- MPO infiltration into the lungs (experimental shock; enteral, similar model of HS (Altshuler et al. 2012)): attenuate MPO infiltration into the lungs
- serine protease (~20 kDa) band intensities (~20-kDa serine proteases; dimethanesulfonate): substantial decrease
- serine protease (~20 kDa) band intensities (~20-kDa serine proteases; listed as nafamostat mesilate, dimethanesulfonate): disappeared

Molecule: CNC(=O)[C@H](Cc1c[nH]c2ccccc12)NC(=O)[C@@H](CC(=O)NO)CC(C)C [GM 6001, N-[(2R)-2-(hydroxamidocarbonylmethyl)-4-methylpentanoyl]-L-tryptophan methylamide]
- E-cadherin levels (immunoblot) [1]: neither doxycycline nor GM 6001 were effective
- mucin 13 levels (immunoblot) [1]: neither doxycycline nor GM 6001 were effective
- occludin levels (immunoblot) [1]: neither doxycycline nor GM 6001 were effective
- MMP gelatinase activity bands (220 kDa MMP-9 dimers, pro-MMP-2, MMP-2, 50 kDa band) [2]: reduced or eliminated
- intestinal villi structure (intestinal villi): did not prevent the villi destruction
- 20 kDa serine protease activity bands (20 kDa serine proteases): serine protease bands remained in all gels
- transmural permeability, 90-120 min period ([3]; ex vivo ischemia, inhibitor in lumen without glucose): more effective at reducing the transmural permeability compared to either doxycycline or tranexamic acid
- fluorescein transport rates, 30-60 min and 60-90 min periods ([3]; ex vivo ischemia, inhibitor in lumen without glucose, vs saline): significantly decreased compared to the saline treated intestines

Molecule: OC[C@@H](O)[C@@H](O)[C@H](O)[C@H](O)CO [Mannitol, mannitol]
- intestinal villi structure (intestinal villi): nor preserved villi structure
- fluorescein transport across the wall of the intestine ([3]; ex vivo, treatment in lumen, two-hour ischemic period): neither prevented fluorescein penetration

Molecule: C[C@H]1c2cccc(O)c2C(=O)C2=C(O)[C@]3(O)C(=O)C(C(N)=O)=C(O)[C@@H](N(C)C)[C@@H]3[C@@H](O)[C@@H]21 [doxycycline]
- plasma MMP-1/9 activity reduction (MMP-1/9): 85%

Molecule: tosyl-lysine chloromethyl ketone [TLCK]
- serine protease (~20 kDa) band intensities (~20-kDa serine proteases): substantial decrease
- serine protease (~20 kDa) band intensities (~20-kDa serine proteases; listed as tosyllysine chloromethyl ketone hydrochloride): disappeared
